Tests used:
Assay in all cases: Determination of the minimum inhibitory concentration (MIC value) in microtitre plates
A. niger = assay type: cell-based, Aspergillus niger ATCC 6275; settings: optical density at 620 nm, 5 days at 28° C., MIC = ≦20% growth; tested at 100; 10 and 1 ppm (approximate values); (2), (3), (4) at 120; 60; 30; 15; 7.5; 3.75 ppm
Protocol: (§1) Determination of the Minimum Inhibitory Concentration (MIC Value) in Microtitre Plates Nutrient Medium Casein/soybean flour/peptone bouillon for the preparation of preliminary cultures of the test bacteria and yeast. Mycological slant agar for the preliminary culture of moulds Examples of Test Microbes: Mould: Aspergillus niger ATCC 6275 Procedure: The test substances are pre-dissolved in dimethyl sulfoxide (DMSO) and tested in a series of dilutions of 1:2. Bacteria and yeast are cultured overnight in CASO bouillon; the mould is cultured on myco-logical slant agar and sponged off with 10 ml of 0.85% sodium chloride solution (+0.1% Triton X-100). All the test microbes are adjusted to a germ count of 1−5×10^6 KBE/ml using 0.85% sodium chloride solution. The test substances are pre-pipetted into microtitre plates in an amount of 8 μl per well. Pre-diluted microbe suspensions are diluted 1:100 in CASO bouillon (bacteria and yeast) or Sabouraud 2% glucose bouillon (mould) and added to the test substances in an amount of 192 μl per well. The test batches are incubated for 48 hours at 37° C. (bacteria and yeast) or for 5 days at 28° C. (mould). After incubation, the growth is determined by means of the clouding of the test batches (optical density) at 620 nm in a microplate reader. The concentration of substance at which (compared with the growth control) a marked inhibition of growth (≦20% growth) of the test microbes can be observed is given as the minimum inhibitory concentration (MIC value). One microtitre plate is used per test microbe and substance concentration. All substances are tested in duplicate.

P. aeruginosa = assay type: cell-based, Pseudomonas aeruginosa CIP A-22; settings: optical density at 620 nm, 48 hours at 37° C., MIC = ≦20% growth; tested at 100; 10 and 1 ppm (approximate values); (2), (3), (4) at 120; 60; 30; 15; 7.5; 3.75 ppm
Protocol: as §1, with “Bacteria: Pseudomonas aeruginosa CIP A-22” for “Mould: Aspergillus niger ATCC 6275”

E. coli = assay type: cell-based, Escherichia coli NCTC 8196; settings: optical density at 620 nm, 48 hours at 37° C., MIC = ≦20% growth; tested at 100; 10 and 1 ppm (approximate values); (2), (3), (4) at 120; 60; 30; 15; 7.5; 3.75 ppm
Protocol: as §1, with “Bacteria: Escherichia coli NCTC 8196” for “Mould: Aspergillus niger ATCC 6275”

S. aureus = assay type: cell-based; settings: optical density at 620 nm, 48 hours at 37° C., MIC = ≦20% growth; tested at 100; 10 and 1 ppm (approximate values); (2), (3), (4) at 120; 60; 30; 15; 7.5; 3.75 ppm
Source text: as §1, with “Bacteria: Staphylococcus hominis DMS 20328” for “Mould: Aspergillus niger ATCC 6275”

C. albicans = assay type: cell-based, Candida albicans ATCC 10231; settings: optical density at 620 nm, 48 hours at 37° C., MIC = ≦20% growth; tested at 100; 10 and 1 ppm (approximate values); (2), (3), (4) at 120; 60; 30; 15; 7.5; 3.75 ppm
Protocol: as §1, with “Yeast: Candida albicans” for “Mould: Aspergillus niger”, “10231” for “6275”

Structure (SMILES)	MIC values in ppm A. niger (A. niger)	MIC values in ppm P. aeruginosa (P. aeruginosa)	MIC values in ppm E. coli (E. coli)	MIC values in ppm S. aureus (S. aureus)	MIC values in ppm C. albicans (C. albicans)
Oc1ccc(/C=C/c2nc(-c3ccc(N4CCCC4)cc3)cs2)cc1 [Compound of formula (27)]	>100 ppm	>100 ppm	>100 ppm	>100 ppm	>100 ppm
CCOc1cc(/C=C/c2nc(C(C)(C)C)cs2)ccc1O [Compound of formula (19)]	>100 ppm	>100 ppm	>100 ppm	>100 ppm	>100 ppm
CCOc1cc(/C=C/c2nc(-c3ccc(F)cc3)cs2)ccc1O [Compound of formula (7)]	>100 ppm	>100 ppm	>100 ppm	>100 ppm	>100 ppm
Cc1cc(/C=C/c2nc(-c3ccccc3)cs2)cc(C)c1O [Compound of formula (58)]	>100 ppm	>100 ppm	>100 ppm	>100 ppm	>100 ppm
CCc1csc(/C=C/c2ccc(OC)cc2O)n1 [Compound of formula (44)]	>100 ppm	>100 ppm	>100 ppm	>100 ppm	>100 ppm
COc1ccc(/C=C/c2nc(C(C)(C)C)cs2)cc1O [Compound of formula (18)]	>100 ppm	>100 ppm	>100 ppm	>100 ppm	>100 ppm
Cc1cccc(/C=C/c2nc(C(C)(C)C)cs2)c1O [Compound of formula (24)]	>100 ppm	>100 ppm	>100 ppm	>100 ppm	>100 ppm
COc1cc(O)ccc1/C=C/c1nc(-c2ccccc2)cs1 [Compound of formula (61)]	>100 ppm	>100 ppm	>100 ppm	>100 ppm	>100 ppm

Continued, values first:

MIC values in ppm A. niger (A. niger)	MIC values in ppm P. aeruginosa (P. aeruginosa)	MIC values in ppm E. coli (E. coli)	MIC values in ppm S. aureus (S. aureus)	MIC values in ppm C. albicans (C. albicans)	Structure (SMILES)
>100 ppm	>100 ppm	>100 ppm	>100 ppm	>100 ppm	Oc1cc(OCc2ccccc2)ccc1/C=C/c1nc(-c2ccccc2)cs1 [Compound of formula (60)]
>100 ppm	>100 ppm	>100 ppm	>100 ppm	>100 ppm	COc1ccc(/C=C/c2nc(-c3ccccc3)cs2)c(O)c1 [Compound of formula (55)]
>100 ppm	>100 ppm	>100 ppm	>100 ppm	>100 ppm	CCc1csc(/C=C/c2ccc(OC)c(O)c2)n1 [Compound of formula (41)]
>100 ppm	>100 ppm	>100 ppm	>100 ppm	>100 ppm	CCc1csc(/C=C/c2ccccc2O)n1 [Compound of formula (45)]
>100 ppm	>100 ppm	>100 ppm	>100 ppm	>100 ppm	Oc1cccc(/C=C/c2nc(-c3ccc(F)cc3)cs2)c1 [Compound of formula (5)]
>100 ppm	>100 ppm	>100 ppm	>100 ppm	>100 ppm	CCc1csc(/C=C/c2ccc(O)c(OC)c2)n1 [Compound of formula (43)]
>100 ppm	>100 ppm	>100 ppm	>100 ppm	>100 ppm	Cc1cc(/C=C/c2nc(-c3ccc(F)cc3)cs2)cc(C)c1O [Compound of formula (12)]

From US6624182B1, “Hydroxyphenylvinylthiazoles” (Ciba Specialty Chemicals Corporation, priority 1999, dated 2003)
